How the values were obtained:
[1] = molecular target: T1, AChE from electric eel (Electrophorus electricus) (Electrophorus electricus, UniProt O42275); assay: In vitro AChE inhibition, modified Ellman's method; format: biochemical
T1 construct: purchased Sigma, St. Louis, MO, USA
Experimental: (§1) The ability of all the prepared compounds to inhibit AChE from electric eel (Electrophorus electricus) and BChE from equine serum (both purchased from Sigma, St. Louis, MO, USA) was determined in vitro using a modified Ellman’s method, as described in detail elsewhere. This is a simple, rapid, and direct method to determine the SH and -S-S- group content in proteins. The enzyme activity is measured indirectly by quantifying the concentration of the 5-thio-2-nitrobenzoic acid ion formed in the reaction between the thiol reagent 5,5’-dithiobis-2nitrobenzoic acid (DTNB) and thiocholine, which is a product of acetylthiocholine hydrolysis catalyzed by cholinesterases. The effectiveness of the tested inhibitors is expressed as the IC50 values.
(§2) The enzyme activity in the final reaction mixture (2 mL) was 0.2 U/mL, the concentration of the substrate (acetylthiocholine or butyrythiocholine) was 40 µM, and the concentration of DTNB was 0.1 mM for all reactions. All reactions were carried out at 25 °C in the presence of phosphate-buffered saline (0.1 M, pH 7.4) in a glass cuvette with a 1 cm optical path. All the studied inhibitors were dissolved in DMSO (concentration 0.01 M) and then diluted in demineralized water as necessary. […] All measurements were carried out in triplicate, and the average values of the reaction rate (v0—reaction in the absence of the inhibitor, vi—reaction in the presence of the inhibitor) were used for construction of the dependence v0/vi vs. concentration of the inhibitor.

BChE from equine serum = molecular target: T2, BChE from equine serum (Equus caballus, UniProt P81908); assay: In vitro BChE inhibition, modified Ellman's method; format: biochemical; conditions: for SI (index selectivity) = IC50 (AChE)/IC50 (BChE): ratio IC50 AChE/IC50 BChE
T2 construct: BChE from equine serum; purchased Sigma, St. Louis, MO, USA; host or cells: equine serum
Experimental: as §1, §2

[2] = Determination of lipophilicity by RP-HPLC (capacity factor k); format: physicochemical; conditions: C18, isocratic MeOH 72%/H2O 28%, 40 °C
Experimental: The lipophilicity of all the target compounds was investigated by means of RP-HPLC determination of capacity factors k with a subsequent calculation of log k. The retention times of individual compounds were determined under isocratic conditions with methanol as an organic modifier in the mobile phase using end-capped non-polar C18 stationary RP columns.
The HPLC separation system Agilent 1200 series equipped with a DAD SL (Agilent Technologies) was used. A chromatographic column Symmetry® C18 5 μm, 4.6 × 250 mm, Part No. W21751W016 (Waters Corp., Milford, MA, USA) was applied. The HPLC separation process was monitored by the ChemStation for LC 3D chromatography software (Agilent Technologies). Isocratic elution by a mixture of MeOH p.a. (72%) and H2O-HPLC Mili-Q grade (28%) as a mobile phase was used for the determination of the capacity factor k. The total flow of the column was 1.0 mL/min, injection 20 μL, column temperature 40 °C, and sample temperature 10 °C. The detection wavelength of 210 nm was chosen. A KI methanolic solution was used for the determination of the dead times (tD). Retention times (tR) were measured in minutes. The capacity factors k were calculated according to the formula k = (tR − tD)/tD, where tR is the retention time of the solute and tD is the dead time obtained using an unretained analyte. Each experiment was repeated three times.

[3] = In vitro cell viability assay (CCK-8); format: cell-based; conditions: human, THP-1 cells (human monocytic leukemia), read-out: relative cell viability
Experimental: The human monocytic leukemia THP-1 cell line was selected for this purpose, as we described previously. Nor 2 neither 28 show negative effect on relative cell viability up to the concentration of 30 µM. The relative cell viability was around 100% at this concentration. It makes compounds 2 and 28 interesting for further pharmacological evaluation and allows them to become lead compounds.
Human monocytic leukemia THP-1 cells were used for in vitro antiproliferative assays. Cells were obtained from the European Collection of Cell Cultures (ECACC, Salisbury, UK) and routinely cultured in Roswell Park Memorial Institute RPMI 1640 medium supplemented with 10% fetal bovine serum (FBS), 2% L-glutamine, 1% penicillin and streptomycin (all from Sigma-Aldrich) at 37 °C with 5% CO2. Cells were passaged twice a week. The effect of the compounds on cell viability was determined using a Cell Counting Kit-8 (CCK-8, 2-(2-methoxy-4-nitrophenyl)-3-(4-nitrophenyl)-5-(2,4-disulfophenyl)-2H-tetrazolium, monosodium salt, Sigma) according to the manufacturer’s instructions. The compounds were dissolved in DMSO and added to the cell suspension in the RPMI 1640 medium without FBS (5 × 10^5 cells/mL). […] After this incubation period, the relative cell viability (the ratio between cells treated with compounds and cells treated only with DMSO) was determined by CCK-8 kit.

T1 sequence (O42275 24-633): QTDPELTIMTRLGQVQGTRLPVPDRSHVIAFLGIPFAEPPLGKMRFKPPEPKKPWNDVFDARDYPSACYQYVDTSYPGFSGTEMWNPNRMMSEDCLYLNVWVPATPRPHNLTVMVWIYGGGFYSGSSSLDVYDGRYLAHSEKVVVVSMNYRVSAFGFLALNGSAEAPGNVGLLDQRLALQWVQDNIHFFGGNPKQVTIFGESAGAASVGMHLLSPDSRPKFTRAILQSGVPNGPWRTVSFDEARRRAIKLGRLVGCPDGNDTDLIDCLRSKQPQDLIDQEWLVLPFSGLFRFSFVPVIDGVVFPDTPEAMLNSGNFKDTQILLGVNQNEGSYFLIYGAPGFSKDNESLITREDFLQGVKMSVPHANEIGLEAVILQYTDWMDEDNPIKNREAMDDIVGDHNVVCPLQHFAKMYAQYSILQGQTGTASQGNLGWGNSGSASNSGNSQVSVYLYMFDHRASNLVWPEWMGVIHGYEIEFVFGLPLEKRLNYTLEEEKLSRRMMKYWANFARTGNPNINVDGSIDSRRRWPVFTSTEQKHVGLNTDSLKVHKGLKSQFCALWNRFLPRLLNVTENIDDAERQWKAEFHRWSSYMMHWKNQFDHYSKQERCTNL
T2 sequence (P81908 whole entry): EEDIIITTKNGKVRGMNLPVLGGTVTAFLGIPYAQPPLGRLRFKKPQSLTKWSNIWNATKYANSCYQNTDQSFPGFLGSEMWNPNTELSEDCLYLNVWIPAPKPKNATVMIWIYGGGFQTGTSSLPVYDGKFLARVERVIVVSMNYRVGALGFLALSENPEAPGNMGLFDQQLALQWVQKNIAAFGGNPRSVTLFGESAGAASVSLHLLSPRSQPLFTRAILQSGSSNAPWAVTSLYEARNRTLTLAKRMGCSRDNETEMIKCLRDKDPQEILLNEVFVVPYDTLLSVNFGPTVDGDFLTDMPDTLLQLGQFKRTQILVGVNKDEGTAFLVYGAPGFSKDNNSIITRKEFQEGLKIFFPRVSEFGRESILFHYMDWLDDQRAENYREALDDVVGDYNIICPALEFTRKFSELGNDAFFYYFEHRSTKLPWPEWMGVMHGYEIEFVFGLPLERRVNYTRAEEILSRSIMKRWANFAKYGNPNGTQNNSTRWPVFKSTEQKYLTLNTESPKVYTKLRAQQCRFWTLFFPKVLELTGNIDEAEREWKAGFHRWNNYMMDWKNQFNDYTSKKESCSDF

Compound	IC50 [1] [µM]	IC50 (BChE from equine serum) [µM]	SI (index selectivity) = IC50 (AChE)/IC50 (BChE) (BChE from equine serum)	log k [2]	viability at 24 h, 30 µM [3] [%]
COc1ccccc1NC(=O)c1ccc(NC(=O)OCc2ccccc2)cc1O [Compound 2, Benzyl{3-hydroxy-4-[(2-methoxyphenyl)carbamoyl]phenyl}carbamate]	50.1 ± 1.57	22.2 ± 0.53	2.26	0.3368	~100
O=C(Nc1ccc(C(=O)Nc2c(F)cc(F)cc2F)c(O)c1)OCc1ccccc1 [Compound 28, Benzyl{3-hydroxy-4-[(2,4,6-trifluorophenyl)carbamoyl]phenyl}carbamate]	49.87 ± 0.09	31 ± 2.11	1.61	-0.0131	~100
O=C(Nc1ccc(C(=O)Nc2ccccc2OC(F)(F)F)c(O)c1)OCc1ccccc1 [Compound 15, Benzyl(3-hydroxy-4-{[2-(trifluoromethoxy)phenyl]carbamoyl}phenyl)carbamate]	36 ± 1.48	44.3 ± 0.87	0.81	0.6227	
O=C(Nc1ccc(C(=O)Nc2cc(F)ccc2F)c(O)c1)OCc1ccccc1 [Compound 18, Benzyl{4-[(2,5-difluorophenyl)carbamoyl]-3-hydroxyphenyl}carbamate]	58.31 ± 0.2	157 ± 3.11	0.37	0.4012	
Cc1cccc(NC(=O)c2ccc(NC(=O)OCc3ccccc3)cc2O)c1 [Compound 5, Benzyl{3-hydroxy-4-[(3-methylphenyl)carbamoyl]phenyl}carbamate]	70.2 ± 1.7	167 ± 10.2	0.42	0.2725	
O=C(Nc1ccc(C(=O)Nc2cccc(Cl)c2)c(O)c1)OCc1ccccc1 [Compound 10, Benzyl{4-[(3-chlorophenyl)carbamoyl]-3-hydroxyphenyl}carbamate]	61.6 ± 1.74	204 ± 7.49	0.30	0.6411	
O=C(Nc1ccc(C(=O)Nc2cc(Cl)cc(Cl)c2)c(O)c1)OCc1ccccc1 [Compound 25, Benzyl{4-[(3,5-dichlorophenyl)carbamoyl]-3-hydroxyphenyl}carbamate]	50.62 ± 0.38	143 ± 3.69	0.35	0.9084	
O=C(Nc1ccc(C(=O)Nc2ccc(C(F)(F)F)cc2)c(O)c1)OCc1ccccc1 [Compound 14, Benzyl(3-hydroxy-4-{[4-(trifluoromethyl)phenyl]carbamoyl}phenyl)carbamate]	71.4 ± 5.04	137 ± 21.9	0.52	0.7408	

From article PMC8037530, “Synthesis and Hybrid SAR Property Modeling of Novel Cholinesterase Inhibitors” (International Journal of Molecular Sciences, 2021)
